Patent publication US9193736B2, “PDE 10a inhibitors for the treatment of type II diabetes” (Janssen Pharmaceutica, NV, priority 2013, dated 2015)
Where a name gives a salt, the structure may show the parent alone. Residues, ends and D or L forms follow the SMILES beside them. *: point of attachment. X1 = O=C(c1ccc(-c2c(C#Cc3ccc4ccccc4n3)nc3c(N4CCOCC4)ccnn23)cc1)*

Experiments:
[1] = target: Rat recombinant PDE10a (rPDE10a) (Rattus norvegicus (Rat), UniProt Q9QYJ6); assay: In vitro assay PDE10a: rat recombinant PDE10a SPA with 3H-cAMP substrate, IC50; assay type: biochemical; settings: 60 nM cAMP, read-out: rPDE10a2 IC50
Protocol: In Vitro Assay PDE10a Rat recombinant PDE10a (rPDE10a) was expressed in Sf9 cells using a recombinant rPDE10a baculovirus construct. Cells were harvested after 48 h of infection and the rPDE10a protein was purified by metal chelate chromatography on Ni-sepharose 6FF. Tested compounds were dissolved and diluted in 100% DMSO to a concentration 100 fold of the final concentration in the assay. […] The reaction was incubated for 60 min at rt. After incubation, the reaction was stopped with 20 μL of 17.8 mg/mL PDE SPA beads. […] For blank values the enzyme was omitted from the reaction and replaced by incubation buffer.

[2] = target: Human recombinant PDE10A2 (Homo sapiens (Human), UniProt Q9Y233); assay: In vitro hPDE10a: human recombinant PDE10A2 scintillation proximity assay, IC50; assay type: biochemical; settings: human recombinant PDE10A2, SPA, 60 nM cAMP; read-out: hPDE10a2 IC50
Protocol: Cells were harvested and the phosphodiesterase protein was purified by metal chelate chromatography on Ni-sepharose 6FF. The affinity of the compounds of Formula (I) for phophodiesterases (PDE) was measured by a scintillation proximity assay (SPA). PDE Yttrium Silicate SPA beads allow PDE activity to be measured by direct binding of the primary phosphate groups of non-cyclic AMP or GMP to the beads via a complex iron chelation mechanism. The amount of bound tritiated product ([^3H]-AMP) is measured by liquid scintillation counting. The compounds were dissolved and diluted in 100% DMSO in polystyrene plates to a concentration of 100-fold the final concentration in the assay. […] After incubation, the reaction was stopped with 20 μL of stop solution, consisting of PDE SPA beads (17.8 mg beads/mL in 18 mM zinc sulphate). […] To measure the low control, no enzyme was added to the reaction mixture. Data were calculated as the percentage of inhibition of total activity measured in the absence of test compound (% control). […] For compounds tested more than once, the data points were aggregated.

Rat recombinant PDE10a (rPDE10a), sequence (Q9QYJ6 whole entry): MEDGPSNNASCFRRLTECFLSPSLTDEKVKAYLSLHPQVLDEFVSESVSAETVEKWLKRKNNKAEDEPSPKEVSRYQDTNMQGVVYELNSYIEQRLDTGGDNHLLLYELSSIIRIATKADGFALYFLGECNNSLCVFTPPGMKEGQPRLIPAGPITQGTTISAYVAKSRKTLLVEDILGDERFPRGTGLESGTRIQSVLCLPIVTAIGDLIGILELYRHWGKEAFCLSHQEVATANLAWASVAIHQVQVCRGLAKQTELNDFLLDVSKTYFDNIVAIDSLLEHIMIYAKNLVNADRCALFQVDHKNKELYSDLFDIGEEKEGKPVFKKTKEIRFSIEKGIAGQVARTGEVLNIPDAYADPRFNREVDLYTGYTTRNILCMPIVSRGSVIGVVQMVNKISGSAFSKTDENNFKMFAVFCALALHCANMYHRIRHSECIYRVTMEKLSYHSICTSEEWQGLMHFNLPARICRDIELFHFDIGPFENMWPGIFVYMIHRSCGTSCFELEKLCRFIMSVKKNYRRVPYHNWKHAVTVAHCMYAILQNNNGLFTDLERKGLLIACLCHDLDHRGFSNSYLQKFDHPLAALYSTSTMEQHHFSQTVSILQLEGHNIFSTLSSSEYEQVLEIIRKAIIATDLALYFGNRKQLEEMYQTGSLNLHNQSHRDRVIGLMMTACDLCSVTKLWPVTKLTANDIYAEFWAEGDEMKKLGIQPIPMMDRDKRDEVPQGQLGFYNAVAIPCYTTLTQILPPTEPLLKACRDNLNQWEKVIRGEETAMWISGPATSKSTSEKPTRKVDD
Human recombinant PDE10A2, sequence (Q9Y233 267-1055): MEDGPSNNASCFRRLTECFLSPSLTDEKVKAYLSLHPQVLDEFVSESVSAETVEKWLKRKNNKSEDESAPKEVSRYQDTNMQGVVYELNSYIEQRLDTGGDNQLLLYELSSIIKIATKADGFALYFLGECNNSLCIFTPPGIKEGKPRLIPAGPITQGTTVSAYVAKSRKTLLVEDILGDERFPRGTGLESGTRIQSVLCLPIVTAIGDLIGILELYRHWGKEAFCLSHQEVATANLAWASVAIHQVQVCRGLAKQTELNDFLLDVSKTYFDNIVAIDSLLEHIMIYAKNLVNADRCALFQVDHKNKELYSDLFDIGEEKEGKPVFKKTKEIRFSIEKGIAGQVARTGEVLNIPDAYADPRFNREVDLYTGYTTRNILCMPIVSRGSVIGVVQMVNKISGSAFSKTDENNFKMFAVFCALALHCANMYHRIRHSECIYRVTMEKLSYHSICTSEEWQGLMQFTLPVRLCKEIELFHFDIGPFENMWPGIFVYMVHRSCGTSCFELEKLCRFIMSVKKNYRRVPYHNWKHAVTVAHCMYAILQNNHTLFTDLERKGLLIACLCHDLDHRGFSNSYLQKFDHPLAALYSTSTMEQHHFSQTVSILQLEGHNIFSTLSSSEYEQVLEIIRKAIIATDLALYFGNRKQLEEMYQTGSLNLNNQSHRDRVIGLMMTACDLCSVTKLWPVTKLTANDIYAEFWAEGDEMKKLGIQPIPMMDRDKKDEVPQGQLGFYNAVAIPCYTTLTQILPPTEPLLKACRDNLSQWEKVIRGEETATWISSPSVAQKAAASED

SMILES | IC50 [1] | IC50 [2]
Cc1ccc(-c2c(COc3ccc4ccccc4n3)nc3c(N4CCOCC4)ccnn23)cn1 [Cpd 1, 4-(3-(6-methylpyridin-3-yl)-2-((quinolin-2-yloxy)methyl)imidazo[1,2-b]pyridazin-8-yl)morpholine methane sulfonic acid] | 46 nM | 115 nM
c1cncc(-c2c(COc3ccc4ccccc4n3)nc3c(N4CCOCC4)ccnn23)c1 [Cpd 2, 4-(3-(pyridin-3-yl)-2-((quinolin-2-yloxy)methyl)imidazo[1,2-b]pyridazin-8-yl)morpholine] | 141 nM | 245 nM
O=C(Nc1ccc2ccccc2n1)c1nc2c(N3CCOCC3)ccnn2c1-c1ccc(N2CCNCC2)nc1 [Cpd 3, 8-Morpholino-3-(6-(piperazin-1-yl)pyridin-3-yl)-N-(quinolin-2-yl)imidazo[1,2-b]pyridazine-2-carboxamide trifluoroacetic acid salt] | 676 nM | 759 nM
c1ccc2nc(NCc3nc4c(N5CCOCC5)ccnn4c3-c3ccc(N4CCNCC4)nc3)ccc2c1 [Cpd 4, N-((8-Morpholino-3-(6-(piperazin-1-yl)pyridin-3-yl)imidazo[1,2-b]pyridazin-2-yl)methyl)quinolin-2-amine trifluoroacetic acid salt] | 200 nM | 155 nM
CN(C)c1ccc(-c2c(COc3ccc4ccccc4n3)nc3c(N4CCOCC4)ccnn23)cn1 [Cpd 5, N,N-dimethyl-5-(8-morpholino-2-((quinolin-2-yloxy)methyl)imidazo[1,2-b]pyridazin-3-yl)pyridin-2-amine methane sulfonic acid] | 457 nM | 126 nM
CCN(CC)c1ccc(-c2c(COc3ccc4ccccc4n3)nc3c(N4CCOCC4)ccnn23)cn1 [Cpd 7, N,N-diethyl-5-(8-morpholino-2-((quinolin-2-yloxy)methyl)imidazo[1,2-b]pyridazin-3-yl)pyridin-2-amine methane sulfonic acid] | 447 nM | 692 nM
O=S(=O)(Cc1nc2c(N3CCOCC3)ccnn2c1-c1ccc(N2CCNCC2)nc1)c1ccc2ccccc2n1 [Cpd 9, 4-(3-(6-(piperazin-1-yl)pyridin-3-yl)-2-((quinolin-2-ylsulfonyl)methyl)imidazo[1,2-b]pyridazin-8-yl)morpholine trifluoroacetic acid salt] | 132 nM | 427 nM
CN1CC=C(c2ccc(-c3c(COc4ccc5ccccc5n4)nc4c(N5CCOCC5)ccnn34)cn2)CC1 [Cpd 10, 4-(3-(1′-methyl-1′,2′,3′,6′-tetrahydro-[2,4′-bipyridin]-5-yl)-2-((quinolin-2-yloxy)methyl)imidazo[1,2-b]pyridazin-8-yl)morpholine] | 17 nM | 43 nM
O=C(O)c1ccc(-c2c(/C=C/c3ccc4c(n3)CCCC4)nc3c(N4CCOCC4)ccnn23)cn1 [Cpd 107, (E)-5-(8-morpholino-2-(2-(5,6,7,8-tetrahydroquinolin-2-yl)vinyl)imidazo[1,2-b]pyridazin-3-yl)picolinic acid trifluoroacetic acid salt] | – | 12 nM
O=c1ncn(-c2ccc(-c3c(/C=C/c4ccc5ccccc5n4)nc4c(N5CCOCC5)ccnn34)cc2F)[nH]1 [Cpd 158, (E)-1-(2-Fluoro-4-(8-morpholino-2-(2-(quinolin-2-yl)vinyl)imidazo[1,2-b]pyridazin-3-yl)phenyl)-1,2-dihydro-1,2,4-triazol-3-one] | – | 5 nM
CC(=O)c1ccc(-c2c(C#Cc3ccc4ccccc4n3)nc3c(N4CCOCC4)ccnn23)cc1 [Cpd 159, 1-(4-(8-Morpholino-2-(quinolin-2-ylethynyl)imidazo[1,2-b]pyridazin-3-yl)phenyl)ethanone] | – | 9 nM
c1ccc2nc(C3CC3c3cn4nccc(N5CCOCC5)c4n3)ccc2c1 (stereo not shown) [Cpd 161, 2-[2-(8-Morpholin-4-ylimidazo[1,2-b]pyridazin-2-yl)cyclopropyl]quinoline] | – | 4 nM
O=c1[nH]nc(-c2ccc(-c3c(/C=C/c4ccc5ccccc5n4)nc4c(N5CCOCC5)ccnn34)cc2F)[nH]1 [Cpd 162, (E)-5-(2-Fluoro-4-(8-morpholino-2-(2-(quinolin-2-yl)vinyl)imidazo[1,2-b]pyridazin-3-yl)phenyl)-2H-1,2,4-triazol-3(4H)-one] | – | 9 nM
Cn1nc(-c2ccc(-c3c(/C=C/c4ccc5ccccc5n4)nc4c(N5CCOCC5)ccnn34)cc2F)[nH]c1=O [Cpd 163, (E)-5-(2-Fluoro-4-(8-morpholino-2-(2-(quinolin-2-yl)vinyl)imidazo[1,2-b]pyridazin-3-yl)phenyl)-2-methyl-2H-1,2,4-triazol-3(4H)-one] | – | 12 nM
O=C(O)c1ccc(-c2c([C@@H]3C[C@@H]3c3ccc4ccccc4n3)nc3c(N4CCOCC4)cc(Cl)nn23)cc1F [Cpd 165, 4-(6-Chloro-8-morpholino-2-((1R,2S)-2-(quinolin-2-yl)cyclopropyl)imidazo[1,2-b]pyridazin-3-yl)-2-fluorobenzoic acid trifluoroacetic acid salt] | – | 12 nM
O=C(O)[C@H]1C[C@@H]1c1ccc(-c2c([C@H]3C[C@H](c4ccc5ccccc5n4)C3)nc3c(N4CCOCC4)ccnn23)cc1 [Cpd 170, (1R,2S)-2-(4-(8-Morpholino-2-((1R,3S)-3-(quinolin-2-yl)cyclobutyl)imidazo[1,2-b]pyridazin-3-yl)phenyl)cyclopropanecarboxylic acid] | – | 1 nM
CC(C)(C(=O)O)c1ccc(-c2c([C@H]3C[C@H](c4ccc5ccccc5n4)C3)nc3c(N4CCOCC4)ccnn23)cc1 [Cpd 171, 2-Methyl-2-(4-(8-morpholino-2-((1R,3R)-3-(quinolin-2-yl)cyclobutyl)imidazo[1,2-b]pyridazin-3-yl)phenyl)propanoic acid] | – | 2 nM
CC(C)(CC(=O)O)c1ccc(-c2c([C@H]3C[C@H](c4ccc5ccccc5n4)C3)nc3c(N4CCOCC4)ccnn23)cc1 [Cpd 172, 3-Methyl-3-{4-[8-morpholin-4-yl-2-(trans-3-quinolin-2-ylcyclobutyl)imidazo[1,2-b]pyridazin-3-yl]phenyl}butanoic acid] | – | 1 nM
O=C(O)CC1(c2ccc(-c3c([C@H]4C[C@H](c5ccc6ccccc6n5)C4)nc4c(N5CCOCC5)ccnn34)cc2)COC1 [Cpd 174, 2-(3-(4-(8-Morpholino-2-((1R,3R)-3-(quinolin-2-yl)cyclobutyl)imidazo[1,2-b]pyridazin-3-yl)phenyl)oxetan-3-yl)acetic acid] | – | 1 nM
CC(C)C[C@H](NC(=O)[C@H](C)N)C(=O)N[C@@H](C)C(=O)N[C@@H](CCCCNC(=O)c1ccc(-c2c(C#Cc3ccc4ccccc4n3)nc3c(N4CCOCC4)ccnn23)cc1)C(N)=O [Cpd 178, N—((S)-6-amino-5-((S)-2-((S)-2-((S)-2-aminopropanamido)-4-methylpentanamido)propanamido)-6-oxohexyl)-4-(8-morpholino-2-(quinolin-2-ylethynyl)imidazo[1,2-b]pyridazin-3-yl)benzamide] (H-ALAK(X1)-NH2) | – | 11 nM
C[C@H](N)C(=O)N[C@@H](CCCCNC(=O)c1ccc(-c2c(C#Cc3ccc4ccccc4n3)nc3c(N4CCOCC4)ccnn23)cc1)C(N)=O [Cpd 179, N—((S)-6-amino-5-((S)-2-aminopropanamido)-6-oxohexyl)-4-(8-morpholino-2-(quinolin-2-ylethynyl)imidazo[1,2-b]pyridazin-3-yl)benzamide] | – | 5 nM
NC(=O)[C@@H](N)CCCCNC(=O)c1ccc(-c2c(C#Cc3ccc4ccccc4n3)nc3c(N4CCOCC4)ccnn23)cc1 [Cpd 180, (S)—N-(5,6-diamino-6-oxohexyl)-4-(8-morpholino-2-(quinolin-2-ylethynyl)imidazo[1,2-b]pyridazin-3-yl)benzamide] | – | 5 nM
NCC(=O)N[C@@H](CCCCNC(=O)c1ccc(-c2c(C#Cc3ccc4ccccc4n3)nc3c(N4CCOCC4)ccnn23)cc1)C(N)=O [Cpd 181, (S)—N-(6-amino-5-(2-aminoacetamido)-6-oxohexyl)-4-(8-morpholino-2-(quinolin-2-ylethynyl)imidazo[1,2-b]pyridazin-3-yl)benzamide] | – | 6 nM
O=C(O)c1ccc(-c2c([C@H]3C[C@H](c4ccc5ccccc5n4)C3)nc3c(N4CCOCC4)cc(Cl)nn23)cc1 [compound 160, 4-(6-Chloro-8-morpholino-2-((1r,3r)-3-(quinolin-2-yl)cyclobutyl)imidazo[1,2-b]pyridazin-3-yl)benzoic acid trifluoroacetic acid salt] | – | 1 nM
O=C(O)C1CCN(c2ccc(-c3c([C@H]4C[C@@H](c5ccc6ccccc6n5)C4)nc4c(N5CCOCC5)ccnn34)cc2)CC1 [compound 166, 1-(4-(8-Morpholino-2-((1s,3s)-3-(quinolin-2-yl)cyclobutyl)imidazo[1,2-b]pyridazin-3-yl)phenyl)piperidine-4-carboxylic acid] | – | 93 nM
O=C(O)c1ccc(-c2c([C@H]3C[C@@H](c4ccc5ccccc5n4)C3)nc3c(N4CCOCC4)ccnn23)cc1 [compound 167, 4-(8-Morpholino-2-((1s,3s)-3-(quinolin-2-yl)cyclobutyl)imidazo[1,2-b]pyridazin-3-yl)benzoic acid trifluoroacetic acid salt] | – | 13 nM
